The values that follow come from US9822091B2, “Method for producing ellagic acid composition” (KAO CORPORATION, priority 2013, dated 2017).

Data set [1] in a line: Free ellagic acid dissolved in the aqueous medium of the heat-treated solution (HPLC quantification). In kind it is physicochemical.
Procedure: (§1) Free ellagic acid was quantified by a gradient method using a high-performance liquid chromatograph manufactured by Hitachi, Ltd. with a column Cadenza CD-C18 (4.6 mmφ×150 mm, 3 μm) manufactured by Imtakt Corporation at a column temperature of 40° C. A 0.05 mol/L aqueous solution of acetic acid was used as a mobile phase solution A, and acetonitrile was used as a mobile phase solution B, respectively, and they were delivered at 1.0 mL/min.
(§2) The sample injection volume was 10 μL, and quantification was carried out based on an absorbance at a wavelength of 254 nm.
Solubilization ratio (%) of free ellagic acid=[(Mass of free ellagic acid dissolved in water or aqueous medium)/(Mass of free ellagic acid in material for heat treatment)]×100
The solution in the slurry supply tank was fed to a stainless-steel flow reactor having an inner volume of 100 mL (manufactured by Nitto Koatsu Co., Ltd.) at 100 mL/min, and was subjected to heat treatment at 110° C. (mean residence time: 1 minute). The pressure was adjusted to 0.3 MPa (gauge pressure) with an outlet valve. […] The cooling rate determined from the time of cooling from 110° C. to 90° C. was 7.88° C./s. A part of the heat-treated solution was sampled, and the amount of free ellagic acid dissolved in the aqueous medium was measured to determine a solubilization ratio.
Data set [2] is described as follows: Evaluation of solubility: free ellagic acid dissolved in water from the dried ellagic acid composition. In kind it is physicochemical.
Procedure: as §1, §2
The solubility of free ellagic acid in water in an ellagic acid composition after drying was determined by: adding the ellagic acid composition to distilled water so that the amount of solids was one in an aqueous solution or a suspension before drying; shaking the mixture at 25° C. for 5 minutes; filtering the resultant with a cellulose acetate membrane filter having a pore size of 0.2 μm; and measuring the concentration of ellagic acid dissolved therein.
Solubilization ratio (%) of free ellagic acid=[(Mass of free ellagic acid dissolved in water or aqueous medium)/(Mass of free ellagic acid in material for heat treatment)]×100 […]

`O=c1oc2c(O)c(O)cc3c(=O)oc4c(O)c(O)cc1c4c23` [Comparative Example 1, ellagic acid dihydrate]: the Solubilization ratio in data set [1] was 8%; in data set [2] (5 min), 6%. Also, the “Concentration of free ellagic acid dissolved in aqueous medium (25° C.)” value in data set [1] (heat-treated solution before drying, 25° C.) amounted to 6000 ng/mL. In data set [2] (composition powder after freeze or spray drying, redissolved in distilled water, shaken 5 minutes at 25° C., 0.2 μm filter), the “Concentration of free ellagic acid dissolved in water (25° C.)” value came out at 5000 ng/mL.
